In publication doi:10.1101/2025.08.06.668955, “High-Affinity, Structure-Validated and Selective Macrocyclic Peptide Tools for Chemical Biology Studies of Huntingtin” (bioRxiv, 2025):
Where a SMILES comes first, the peptide text is derived from it. Bridges are numbered along the chain shown (N, C = ends). Primed or numbered codes have the meaning given here. Where no end group is shown, it is not given here. [ ]: non-standard residue; d: D form. FITC′ = not defined here

Legend:
[1] = molecular target: T1, HTTQ23-HAP40 (Homo sapiens, UniProt P23610+P42858, INS38QQ); test: Thermal shift assay (DSF), HTTQ23-HAP40; assay type: binding; details: SYPRO Orange, 0.25 mg/mL protein, macrocycle up to 10 μM, 2.5% DMSO, n=3
T1 construct: Full-length wildtype HTT with a polyQ tract of 23 glutamines; FLAG; made in house; host or cells: Sf9 insect cells (baculovirus)
Description: In an Axygen® 384-well PCR microplate (REF# PCR-384-LC480-W-NF, Corning), samples were mixed to yield a final concentration of 0.25 mg/mL Q54 or Q23/HAP40, a 5-pt 2-fold serial dilution of each macrocycle (top concentration of 10 μM, 2.5% DMSO), and 5X SYPRO™ Orange (CAT# S6650, Thermo Fisher Scientific) in buffer (20 mM HEPES pH 7.4, 150 mM NaCl, 1 mM TCEP, 0.005% Tween-20). Differential Scanning Fluorimetry (DSF) was performed using a LightCycler® 480 (Roche LifeSciences) set to a 4 °C/min temperature ramp (20–95 °C) and fluorescence detection at 580 nm. Melting temperatures (Tm) were obtained from the minima of the negative derivative of each curve. The propagated error of the thermal shift (ΔTm) was calculated from the standard deviation of each Tm mean (n=3). To ensure a maximally macrocycle-bound fraction (KD ~10 nM; ~100% bound) at 0.25 mg/mL HTT or HTT-HAP40 (~0.7 μM), the upper limit of macrocycle tested was 10 μM.
98 Supplementary Figure. 10. Thermal shift (ΔTm) induced by macrocycle binding. Melting
99 temperature of HTTQ54 (left) with HL5 or HL2 minus HTTQ54 with DMSO (46.5 °C), and (right)
100 HTTQ23-HAP40 with HD4, HL2, HL5, HHD2, HHD3, or HHL1 minus HTTQ23-HAP40 with DMSO
101 (51.0 °C). ΔTm significance was determined using an unpaired t-test with Welch correction,
102 comparing to the mean Tm of Q54 or Q23-HAP40 with DMSO; *P < 0.05, **P < 0.01, ***P <
103 0.001. The summary table reports the ΔTm and exact P value at the highest concentration tested
(1 picture or pasted object on this page, not shown here)

[2] = test system: HAP40; test: Macrocycle precipitation (MP), co-purification of HAP40, LC-MS/MS; assay type: binding, human; details: HEK293T lysate versus HTT CRISPR knockout line
Source text: To assess macrocycle selectivity and identify potential HTT interacting proteins, we performed LC-MS/MS analysis of the proteins in the MP eluates. To control for non-specific binding, we performed MPs using lysates from a HTT CRISPR knockout cell line ([Jung et al., 2021]). Across all macrocycles, HTT emerged as the most enriched protein after background subtraction (Figure 5b). Given we performed affinity purification using macrocycles targeting distinct HTT surfaces, we hypothesized that any real HTT protein binder might be co-purified with two or more macrocycles. […] In contrast, HAP40 was not enriched by HL5, consistent with its specificity for apo HTT.
(§1) Macrocycles were pre-conjugated to streptavidin beads (Cytiva, 17-5113-01) by incubating with a 30 μL slurry of beads per macrocycle purification (MP) in Lysis Buffer (10 mM Tris-HCl, pH 7.9, 150 mM NaCl, 0.1% NP-40, 1:500 protease inhibitor cocktail (Sigma-Aldrich), 1:1,000 benzonase nuclease, and 2 mM MgCl2) for 1 hour at 4°C. A concentration of 1.25 μM macrocycle was used for conjugation. After incubation, beads were washed three times with 500 μL Lysis Buffer to remove unbound macrocycles and resuspended in 500 μL of lysate at 4 mg/mL protein concentration.
(§2) Cells were harvested by centrifugation at 1,500 rpm for 5 minutes, washed twice with PBS, and snap-frozen. Cell pellets were then resuspended in 500 μL of Lysis Buffer (as described above) and incubated on an end-over-end rotator at 4°C for 1 hour. Lysates were clarified by centrifugation at 20,000g for 15 minutes at 4°C, and the supernatant was transferred to fresh 1.5 mL Eppendorf tubes. Protein concentration was determined by BCA assay (Thermo Fisher Scientific, 23225), yielding approximately 4 mg of protein on average. Lysates were diluted to a final concentration of 4 mg/mL for use, providing […] of total protein per MP.
(§3) Macrocycle-conjugated beads were incubated with 2 mg of lysate in Lysis Buffer for 1 hour at 4°C with rotation. After incubation, beads were collected by centrifugation at 3,000 rpm, and the flow-through was saved for analysis. Beads were then washed sequentially with 1 mL of Wash Buffer 1 (10 mM Tris-HCl, pH 7.9, 100 mM NaCl, 0.1% NP-40) and twice with Wash Buffer 2 (Wash Buffer 1 without detergent). Lastly, bound proteins were eluted from the beads with 200 μL of 0.5 M NH4OH and flash-frozen in liquid nitrogen.
All sample preparation, LC MS/MS data collection, and MS data searches were carried out at the SPARC BioCentre at The Hospital for Sick Children (Toronto, ON, Canada). […] Samples were analyzed by liquid chromatography tandem mass spectrometry (LC-MS/MS) using an EASY-nanoLC 1200 system with a 1 h analysis and an Orbitrap Fusion™ Lumos™ Tribrid™ Mass Spectrometer (Thermo Fisher Scientific). […]

[3] = test system: endogenous HTT; test: Macrocycle precipitation (MP) of endogenous HTT from HEK293T cell extracts; assay type: binding, human; details: HEK293 cell lysate, 2 mg protein, streptavidin beads conjugated at 1.25 μM macrocycle, 1 hour at 4°C
Description: To explore binding and selectivity within a more physiological context, we used biotinylated derivatives of macrocycles to affinity purify HTT from cellular extracts, which we term “macrocycle precipitations” (MPs)(Figure 5a). The macrocycles were joined to the biotin using either a 2 amino acid linker (AK-Bio) or a PEG11 spacer (PEG11-Bio) (Supplementary Figure 12a). Extracts were prepared from HEK293T cells, including HTT knock-out lines and streptavidin beads were used to attempt to capture macrocycle–HTT complexes, and potentially associated binding partners.
as §1, §2, §3
All sample preparation, LC MS/MS data collection, and MS data searches were carried out at the SPARC BioCentre at The Hospital for Sick Children (Toronto, ON, Canada). Samples were reduced with DTT (10 mM, 60°C, 1 hour), alkylated with iodoacetamide (20 mM, room temperature, 45 min, dark), and digested overnight at 37°C with trypsin ([…]; Pierce). Peptides were dried by vacuum centrifugation, desalted on C18 ziptips (Millipore) using a DigestPro MSi (Intavis Bioanalytical Instruments), and dried again by vacuum centrifugation before resuspension in Buffer A (0.1% formic acid (v/v) in water). Samples were analyzed by liquid chromatography tandem mass spectrometry (LC-MS/MS) using an EASY-nanoLC 1200 system with a 1 h analysis and an Orbitrap Fusion™ Lumos™ Tribrid™ Mass Spectrometer (Thermo Fisher Scientific). The LC portion of the analysis consisted of a 18 min linear gradient running 3–20% of Buffer A to Buffer B (0.1% formic acid (v/v) in […]), followed by a 31 min linear gradient running 20–35% of Buffer A to Buffer B, a 2 min ramp to 100% Buffer B and 9 min hold at 100% Buffer B, all at a flow rate of 250 nL/min. Samples were loaded into a […] × 2 cm Acclaim PepMap 100 Pre-column followed by a 75 μm × 50 cm PepMax RSLC EASY-Spray analytical column filled with […] C18 beads (Thermo Fisher Scientific). MS1 acquisition resolution was set to 120000 with an automatic gain control (AGC) target value of 4 × 105 and maximum ion injection time (IT) of 50 ms for a scan range of m/z 375–1500, with dynamic exclusion set to 10 s. Isolation for MS2 scans was performed in the quadrupole with an isolation window of m/z 0.7. […]

[4] = molecular target: HTTQ54-HAP40 (UniProt P23610 1-371); test: FP
Sequence of HTTQ54-HAP40 (P42858 other isoform, or with tags, fused parts or gaps, chain 1 of 2): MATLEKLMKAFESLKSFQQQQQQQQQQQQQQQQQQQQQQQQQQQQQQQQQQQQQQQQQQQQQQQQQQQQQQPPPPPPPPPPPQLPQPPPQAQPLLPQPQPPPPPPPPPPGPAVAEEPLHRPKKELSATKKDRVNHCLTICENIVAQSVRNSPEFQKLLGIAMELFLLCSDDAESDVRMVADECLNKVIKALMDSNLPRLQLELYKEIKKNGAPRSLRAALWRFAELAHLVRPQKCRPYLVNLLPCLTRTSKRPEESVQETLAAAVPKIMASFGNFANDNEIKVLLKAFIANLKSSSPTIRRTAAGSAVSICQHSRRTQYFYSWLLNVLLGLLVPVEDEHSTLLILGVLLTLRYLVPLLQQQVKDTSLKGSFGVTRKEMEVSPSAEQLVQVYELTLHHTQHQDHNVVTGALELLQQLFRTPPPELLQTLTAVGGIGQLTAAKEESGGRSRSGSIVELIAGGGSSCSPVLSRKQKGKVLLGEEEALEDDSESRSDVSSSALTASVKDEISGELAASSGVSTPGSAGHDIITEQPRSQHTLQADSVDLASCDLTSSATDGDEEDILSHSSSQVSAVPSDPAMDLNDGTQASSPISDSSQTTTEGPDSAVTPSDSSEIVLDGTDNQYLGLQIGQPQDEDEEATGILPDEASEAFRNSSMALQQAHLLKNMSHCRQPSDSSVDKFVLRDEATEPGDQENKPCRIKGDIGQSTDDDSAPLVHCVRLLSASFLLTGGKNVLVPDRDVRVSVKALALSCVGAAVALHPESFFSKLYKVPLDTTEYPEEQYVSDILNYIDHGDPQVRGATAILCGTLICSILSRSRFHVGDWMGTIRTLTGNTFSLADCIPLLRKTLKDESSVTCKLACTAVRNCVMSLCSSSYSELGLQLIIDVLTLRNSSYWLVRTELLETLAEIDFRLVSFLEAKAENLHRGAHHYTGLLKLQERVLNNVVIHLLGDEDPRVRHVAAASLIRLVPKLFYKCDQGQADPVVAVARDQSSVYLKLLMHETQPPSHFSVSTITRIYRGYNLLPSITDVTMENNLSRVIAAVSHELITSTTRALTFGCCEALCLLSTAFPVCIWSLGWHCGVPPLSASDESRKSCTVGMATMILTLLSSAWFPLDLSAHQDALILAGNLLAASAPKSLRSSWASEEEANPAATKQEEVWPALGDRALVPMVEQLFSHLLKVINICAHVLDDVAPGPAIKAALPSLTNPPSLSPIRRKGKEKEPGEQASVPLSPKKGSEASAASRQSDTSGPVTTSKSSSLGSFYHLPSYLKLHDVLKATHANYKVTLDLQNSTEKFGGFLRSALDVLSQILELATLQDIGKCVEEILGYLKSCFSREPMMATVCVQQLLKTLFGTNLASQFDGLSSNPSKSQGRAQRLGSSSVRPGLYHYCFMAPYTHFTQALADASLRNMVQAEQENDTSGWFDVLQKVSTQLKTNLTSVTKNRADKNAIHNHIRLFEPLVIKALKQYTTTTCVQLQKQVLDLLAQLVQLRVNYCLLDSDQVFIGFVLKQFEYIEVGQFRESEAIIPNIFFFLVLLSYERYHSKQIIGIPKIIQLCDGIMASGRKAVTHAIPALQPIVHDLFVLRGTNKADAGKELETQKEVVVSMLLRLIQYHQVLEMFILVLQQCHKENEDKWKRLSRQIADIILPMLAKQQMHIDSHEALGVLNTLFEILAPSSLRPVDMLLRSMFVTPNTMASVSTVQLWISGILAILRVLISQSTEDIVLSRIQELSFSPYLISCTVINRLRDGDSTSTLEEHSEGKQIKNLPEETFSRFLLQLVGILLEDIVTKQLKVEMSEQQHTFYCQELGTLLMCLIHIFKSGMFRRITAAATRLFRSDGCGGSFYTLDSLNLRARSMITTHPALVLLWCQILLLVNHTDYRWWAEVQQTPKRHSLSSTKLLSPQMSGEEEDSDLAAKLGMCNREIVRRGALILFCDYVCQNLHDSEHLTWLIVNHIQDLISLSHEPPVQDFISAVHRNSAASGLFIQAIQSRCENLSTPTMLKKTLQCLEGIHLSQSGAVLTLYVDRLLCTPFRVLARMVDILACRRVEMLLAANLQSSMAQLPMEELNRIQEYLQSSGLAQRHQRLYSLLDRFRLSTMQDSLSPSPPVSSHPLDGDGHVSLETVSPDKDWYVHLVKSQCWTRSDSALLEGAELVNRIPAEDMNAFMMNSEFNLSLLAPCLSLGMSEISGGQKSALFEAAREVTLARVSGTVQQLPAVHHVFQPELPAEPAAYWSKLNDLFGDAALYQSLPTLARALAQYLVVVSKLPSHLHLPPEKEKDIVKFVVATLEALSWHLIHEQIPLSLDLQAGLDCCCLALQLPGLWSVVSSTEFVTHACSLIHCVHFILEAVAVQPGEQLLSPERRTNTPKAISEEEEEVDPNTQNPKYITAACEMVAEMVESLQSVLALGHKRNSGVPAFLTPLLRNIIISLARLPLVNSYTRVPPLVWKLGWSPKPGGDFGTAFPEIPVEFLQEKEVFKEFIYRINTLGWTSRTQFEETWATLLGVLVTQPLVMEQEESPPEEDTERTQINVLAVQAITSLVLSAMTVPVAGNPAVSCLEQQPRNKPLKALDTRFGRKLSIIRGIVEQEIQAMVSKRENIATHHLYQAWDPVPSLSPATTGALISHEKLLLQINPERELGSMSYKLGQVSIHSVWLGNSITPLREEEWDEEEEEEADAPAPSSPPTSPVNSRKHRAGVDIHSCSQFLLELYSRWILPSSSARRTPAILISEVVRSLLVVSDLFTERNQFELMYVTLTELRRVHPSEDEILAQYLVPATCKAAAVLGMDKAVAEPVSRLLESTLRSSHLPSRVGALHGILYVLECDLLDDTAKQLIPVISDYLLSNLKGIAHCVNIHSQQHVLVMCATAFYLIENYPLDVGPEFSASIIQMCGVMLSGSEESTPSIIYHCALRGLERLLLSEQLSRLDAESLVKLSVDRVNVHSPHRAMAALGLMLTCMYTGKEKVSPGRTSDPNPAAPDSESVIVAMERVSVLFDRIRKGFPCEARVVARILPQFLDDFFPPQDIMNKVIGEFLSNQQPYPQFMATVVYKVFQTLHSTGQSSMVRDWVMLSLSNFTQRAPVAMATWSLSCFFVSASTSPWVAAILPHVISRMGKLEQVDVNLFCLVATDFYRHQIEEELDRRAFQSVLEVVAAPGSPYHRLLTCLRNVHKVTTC
Sequence of HTTQ54-HAP40 (P23610 whole entry, chain 2 of 2): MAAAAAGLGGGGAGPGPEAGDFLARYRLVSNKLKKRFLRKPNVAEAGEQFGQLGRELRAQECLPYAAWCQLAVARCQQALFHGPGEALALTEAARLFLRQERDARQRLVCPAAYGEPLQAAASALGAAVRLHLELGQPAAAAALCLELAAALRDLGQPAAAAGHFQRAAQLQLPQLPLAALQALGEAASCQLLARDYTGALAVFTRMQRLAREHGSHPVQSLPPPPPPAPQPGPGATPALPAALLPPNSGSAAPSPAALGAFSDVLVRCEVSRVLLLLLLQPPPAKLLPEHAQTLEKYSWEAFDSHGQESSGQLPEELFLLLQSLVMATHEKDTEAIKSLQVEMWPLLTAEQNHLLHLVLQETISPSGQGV

[5] = molecular target: C-terminally biotinylated HTTQ23 in complex with HAP40 (UniProt P23610 1-371, biotin on the C-terminal Avi-tag); test: SPR

| Molecule | Capture of endogenous HTT by immobilized biotinylated macrocycle [3] | also measured |
| --- | --- | --- |
| CC[C@H](C)[C@H](NC(=O)CNC(=O)[C@@H](NC(=O)[C@H](CCC(N)=O)NC(=O)[C@H](CCCCN)NC(=O)[C@H](CC(N)=O)NC(=O)[C@@H](NC(=O)[C@H](CCC(=O)O)NC(=O)[C@@H]1CSCC(=O)N[C@H](Cc2ccc(O)cc2)C(=O)N[C@@H](CC(=O)O)C(=O)N[C@@H]([C@@H](C)CC)C(=O)N[C@@H](Cc2c[nH]c3ccccc23)C(=O)N1)[C@@H](C)O)[C@@H](C)O)C(=O)N[C@@H](CC(C)C)C(=O)N[C@H](C(=O)N[C@@H](CC(C)C)C(=O)N[C@@H](CS)C(N)=O)C(C)C [HD4] ({CH2CO}-[dY]DIWCETNKQTGILVLC-NH2; thioether N-5) | – | Thermal shift (ΔTm) of HTTQ23-HAP40 induced by macrocycle [1]: No significant thermal effects; Enrichment of HAP40 in macrocycle pulldowns [2]: consistently enriched |
| HD4-AK-Bio: biotinylated derivative of HD4 with a 2 amino acid linker (AK-Bio) (Ac-[dY]DIWCETNKQTGILVLCAK; thioether (positions not given here); also: thioether to downstream Cys, which of Cys5/Cys17 not given here, biotin joined via AK linker, site not given here) | captured | – |
| HHD3-AK-Bio: biotinylated derivative of HHD3 with a 2 amino acid linker (AK-Bio) ({CH2CO}-[dY]TRHWQNNWWILYHEFCAK; thioether N-17 (inferred); also: biotin joined via AK linker, site not given here) | captured | – |
| HHL1-AK-Bio: biotinylated derivative of HHL1 with a 2 amino acid linker (AK-Bio) ({CH2CO}-YLIRSSFNWFVFVEVPCAK; thioether N-17 (inferred); also: biotin joined via 2 amino acid linker AK) | no detectable binding | – |
| HHL1-PEG11-Bio: biotinylated derivative of HHL1 with a PEG11 spacer ({CH2CO}-YLIRSSFNWFVFVEVPC; thioether N-17 (inferred); also: biotin joined via PEG11 spacer) | no detectable binding | – |
| HL2-PEG11-Bio: biotinylated derivative of HL2 with a PEG11 spacer ({CH2CO}-YTARYLTLGTLHYKC; thioether N-15 (inferred); also: biotin joined via PEG11 spacer) | captured | – |
| HL5-PEG11-Bio: biotinylated derivative of HL5 with a PEG11 spacer ({CH2CO}-YTHFQVAPWIQSLC; thioether N-14 (inferred); also: biotin joined via PEG11 spacer) | captured | – |
| {CH2CO}-YTARYLTLGTLHYKC-{FITC′} (thioether N-15 (inferred); not fully specified) [FITC-labeled HL2] | – | Kd [4]: 4 nM |
| {CH2CO}-YTARYLTLGTLHYKC (thioether N-15 (inferred)) [HL2] | – | Kd [5]: 2 nM |
| {CH2CO}-[dY]TRHWQNNWWILYHEFC-{FITC′} (thioether N-17 (inferred); not fully specified) [FITC-labeled HHD3] | – | Kd [4]: 2.6 nM |
| {CH2CO}-YLIRSSFNWFVFVEVPC-{FITC′} (thioether N-17 (inferred); not fully specified) [FITC-labeled HHL1] | – | Kd [4]: 2.6 nM |
